ChEMBL document CHEMBL1201862, “PubChem BioAssay data set” (2004)
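Interpolation was linear, between the two tested concentrations surrounding the appropriate level; five concentrations were tested over 48 hours in 96-well plates. The concentration for 50% growth inhibition is given as GI50.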 Active and inactive are the calls of the source. Cut-off read from the data, not from the text of the source: active = GI50 up to about 1.1 µM and inactive = higher.

Key:
Test in all cases: DTP human tumour cell line panel, 48 h
PC-3 = tested on: PC-3
UACC-257 = tested on: UACC-257
KM12 = tested on: KM12
EKVX = tested on: EKVX
SN12C = tested on: SN12C
SF-268 = tested on: SF-268
HCT-116 = tested on: HCT-116
M14 = tested on: M14
HL-60 = tested on: HL-60
NCI/ADR-RES = tested on: NCI/ADR-RES
SF-295 = tested on: SF-295
SR = tested on: SR
MOLT-4 = tested on: MOLT-4
MDA-MB-435 = tested on: MDA-MB-435
COLO 205 = tested on: COLO 205
DU-145 = tested on: DU-145
786-0 = tested on: 786-0
OVCAR-8 = tested on: OVCAR-8
SK-MEL-28 = tested on: SK-MEL-28
NCI-H460 = tested on: NCI-H460

Measured: GI50

CC(=O)OC1=CC2(OC(C)=O)CC(C)(C)C1C1C(=O)C=CC(=O)C12 (stereo not given)
inactive: PC-3 57.8 µM | UACC-257 > 100 µM | KM12 > 100 µM | EKVX > 68.9 µM | SN12C > 56.6 µM | SF-268 > 63 µM | HCT-116 > 51.3 µM | M14 > 79.3 µM | HL-60 > 100 µM | NCI/ADR-RES 49.8 µM | SF-295 > 75 µM | SR > 64.3 µM | MOLT-4 > 63.8 µM | MDA-MB-435 22.9 µM | COLO 205 > 42.5 µM | DU-145 > 100 µM | 786-0 > 50.7 µM | OVCAR-8 > 58.2 µM | SK-MEL-28 41.4 µM | NCI-H460 > 62.8 µM

COc1ccc2cc(C(=O)CCC(=O)O)ccc2c1
inactive: PC-3 > 100 µM | UACC-257 > 100 µM | KM12 > 100 µM | EKVX > 100 µM | SN12C > 100 µM | SF-268 > 100 µM | HCT-116 > 100 µM | M14 > 100 µM | HL-60 > 100 µM | NCI/ADR-RES > 100 µM | SF-295 > 100 µM | SR > 100 µM | MOLT-4 > 100 µM | MDA-MB-435 > 100 µM | COLO 205 > 100 µM | DU-145 > 100 µM | 786-0 22.4 µM | OVCAR-8 > 100 µM | SK-MEL-28 > 100 µM | NCI-H460 > 100 µM

COc1ccc2c(c1)C(=O)c1ccccc1C2
inactive: PC-3 29.2 µM | UACC-257 33.8 µM | KM12 63 µM | EKVX 39.6 µM | SN12C > 100 µM | SF-268 70.5 µM | HCT-116 36 µM | M14 93.8 µM | HL-60 16.3 µM | NCI/ADR-RES 59.6 µM | SF-295 36.5 µM | SR 46.7 µM | MOLT-4 28.6 µM | MDA-MB-435 41.7 µM | COLO 205 54.5 µM | DU-145 17.1 µM | 786-0 73.8 µM | OVCAR-8 > 100 µM | SK-MEL-28 > 100 µM | NCI-H460 61.8 µM
